Test results as given in the supplement of paper PMC10307832.

Columns and labels:
Experiment in all cases: relative viability (nuclei count vs DMSO), 5 days (fraction); higher = more cells survive
[1] = compound: CCn1c(-c2nonc2N)nc2c(C#CC(C)(C)O)ncc(OC[C@H]3CCCNC3)c21 + Cc1cc(Nc2cc(N3CCN(C)CC3)nc(Sc3ccc(NC(=O)C4CC4)cc3)n2)n[nH]1 [Tozasertib] (partner 0.1 µM)
Summary of the method: (§1)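 Nuclei were stained with Hoechst during a one-step fixation (final 0.05% Triton X-100, 1% formaldehyde, 1 ug/ml Hoechst) carried out 5 days after dosing, then counted on 4× images. The cells, lung cancer lines in 1536-well plates, had been dosed by pin tool the day after seeding with one drug alone or a fixed anchor-drug dose plus five library-drug doses (not always all listed) in √10 steps. Relative viability is the nuclei count in treated wells divided by that in vehicle wells, and each value is the median of duplicate plates.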

BAM7 + Pemetrexed = compound: CCOC1=CC=CC=C1N=NC2=C(NN(C2=O)C3=NC(=CS3)C4=CC=CC=C4)C [BAM7] + Nc1nc2[nH]cc(CCc3ccc(C(=O)N[C@@H](CCC(=O)O)C(=O)O)cc3)c2c(=O)[nH]1 [Pemetrexed] (partner 0.2 µM)
Summary of the method: as §1

[2] = compound: CCn1c(-c2nonc2N)nc2c(C#CC(C)(C)O)ncc(OC[C@H]3CCCNC3)c21 + COc1cc2c(Oc3ccc(NC(=O)C4(C(=O)Nc5ccc(F)cc5)CC4)cc3F)ccnc2cc1OCCCN1CCOCC1 [Foretinib] (partner 0.25 µM)
Summary of the method: as §1

[3] = compound: CCn1c(-c2nonc2N)nc2c(C#CC(C)(C)O)ncc(OC[C@H]3CCCNC3)c21 + Nc1nc2[nH]cc(CCc3ccc(C(=O)N[C@@H](CCC(=O)O)C(=O)O)cc3)c2c(=O)[nH]1 [Pemetrexed] (partner 0.2 µM)
Summary of the method: as §1

Cell Line	relative viability ([1]; first compound 0.01 µM)	relative viability ([1]; first compound 0.03162 µM)	relative viability ([1]; first compound 0.1 µM)	relative viability ([1]; first compound 0.3162 µM)	relative viability ([1]; first compound 1 µM)	relative viability (BAM7 + Pemetrexed; first compound 0.5 µM)	relative viability (BAM7 + Pemetrexed; first compound 5 µM)	relative viability (BAM7 + Pemetrexed; first compound 15.81 µM)	relative viability (BAM7 + Pemetrexed; first compound 50 µM)	relative viability ([2]; first compound 0.01 µM)	relative viability ([2]; first compound 0.03162 µM)	relative viability ([2]; first compound 0.1 µM)	relative viability ([2]; first compound 0.3162 µM)	relative viability ([2]; first compound 1 µM)	relative viability ([3]; first compound 0.01 µM)	relative viability ([3]; first compound 0.03162 µM)	relative viability ([3]; first compound 0.1 µM)	relative viability ([3]; first compound 0.3162 µM)	relative viability ([3]; first compound 1 µM)
NCI-H1650	0.398	0.474	0.44	0.403	0.44	0.336	0.399	0.399	0.354	1.07	1.01	1.3	0.933	1.02	0.361	0.352	0.369	0.359	0.348
BEN	0.588	0.481	0.476	0.53	0.515	0.74	0.88	0.98	1	0.615	0.467	0.7	0.686	0.683	0.779	0.821	0.605	0.753	0.773
EMC-BAC-2	0.297	0.287	0.268	0.255	0.262	0.439	0.458	0.474	0.452	1.06	1.02	0.952	0.973	1.01	0.391	0.427	0.443	0.43	0.427
LU99A	0.296	0.268	0.296	0.308	0.315	0.146	0.18	0.173	0.198	0.797	0.797	0.814	0.776	0.899	0.182	0.201	0.154	0.141	0.193
ABC-1	0.167	0.169	0.176	0.151	0.154	–	–	–	–	1.04	1.28	1.01	0.813	1.08	–	–	–	–	–
NCI-H2170	0.769	0.755	0.778	0.705	0.733	0.252	0.281	0.251	0.269	0.987	1.01	0.972	0.996	1.07	0.278	0.286	0.266	0.271	0.234
NCI-H1299	–	–	–	–	–	–	–	–	–	1.09	1.08	1.06	0.717	1.16	–	–	–	–	–
EBC-1	–	–	–	–	–	–	–	–	–	0.106	0.0912	0.0934	0.102	0.0999	–	–	–	–	–
NCI-H2347	0.6	0.59	–	0.613	0.583	0.426	0.424	0.422	0.415	0.836	0.841	–	0.798	0.676	0.46	0.399	0.385	0.432	0.39
NCI-H1993	0.585	0.591	0.549	0.609	0.574	0.62	0.529	0.5	0.581	0.693	0.835	0.785	0.733	0.714	0.642	0.509	0.516	0.553	0.519
NCI-H322M	0.465	0.419	0.423	0.42	0.448	0.622	0.64	0.645	0.582	0.823	0.881	0.879	0.816	0.911	0.634	0.571	0.556	0.568	0.571
NCI-H838	0.276	0.295	0.29	0.248	0.253	0.293	0.259	0.249	0.231	0.969	1.08	0.988	1.02	1.07	0.248	0.251	0.238	0.225	0.255
HARA	0.13	0.106	0.143	0.0993	0.109	0.228	0.244	0.222	0.292	0.848	1.01	0.864	0.833	0.876	0.24	0.19	0.223	0.247	0.249
NCI-H2087	0.264	0.258	0.248	0.259	0.303	0.671	0.627	0.653	0.646	0.927	1.06	1.15	0.981	1.03	0.614	–	0.646	0.615	0.613
NCI-H1437	0.38	0.461	0.422	0.39	0.432	0.308	0.304	0.33	0.372	1.18	1.27	1.28	1.27	1.36	0.338	0.324	0.318	0.353	0.283
NCI-H1792	–	–	–	–	–	0.943	1.13	0.707	0.816	–	–	–	–	–	0.759	0.684	0.632	0.782	0.687
HCC-44	–	–	1.08	0.79	1.08	0.648	0.642	0.635	0.63	–	–	–	–	–	0.633	0.649	0.661	0.577	0.636
A549	–	–	–	–	–	–	–	–	–	0.92	1.08	0.886	0.843	0.845	–	–	–	–	–
NCI-H1563	–	–	–	–	–	0.778	0.853	0.813	0.633	0.989	0.884	0.886	0.892	0.881	0.76	0.674	0.678	0.702	0.854
IA-LM	–	–	–	–	–	–	–	–	–	0.955	1.02	1.09	0.946	0.923	–	–	–	–	–
NCI-H1703	–	–	–	–	–	–	–	–	–	0.333	0.313	0.347	0.248	0.356	–	–	–	–	–
NCI-H727	0.605	0.662	0.643	0.693	0.575	–	–	–	–	0.833	1.22	0.693	0.877	1.08	–	–	–	–	–
NCI-H1648	–	0.527	0.466	0.444	0.574	0.874	0.88	0.677	1.03	–	–	–	–	–	0.62	0.756	0.759	0.664	0.723
